For the experiment, the system named is P388 leukemia ip, CD2F1 mice, survival T/C. Kind of experiment: NCI In Vivo Anticancer Drug Screen. Data for tumor model P388 Leukemia (intraperitoneal) in CD2F1 (CDF1) mice. To be noted: endpoint: median survival time, higher = longer survival. Summed up: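 Mice carrying the transplanted tumor received test compound or vehicle. Survival was recorded in each group, and the value is the treated-group measurement divided by that of the vehicle-treated control group.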

The mark [1] stands for this setting: dose: 50.0 mg/kg/injection, schedule: Q01DX005 (ip), vehicle: saline with Tween-80.
[2] abbreviates: dose: 100.0 mg/kg/injection, schedule: Q01DX005 (ip), vehicle: saline with Tween-80.
Setting [3] is: dose: 200.0 mg/kg/injection, schedule: Q01DX005 (ip), vehicle: saline with Tween-80.
Where [4] appears, read: dose: 60.0 mg/kg/injection, schedule: Q01DX005 (ip), vehicle: saline with Tween-80.
[5] abbreviates: dose: 120.0 mg/kg/injection, schedule: Q01DX005 (ip), vehicle: saline with Tween-80.
The mark [6] stands for this setting: dose: 50.0 mg/kg/injection, schedule: Q01DX005 (ip), vehicle: Klucel (hydroxypropylcellulose) (HPC).
The mark [7] stands for this setting: dose: 100.0 mg/kg/injection, schedule: Q01DX005 (ip), vehicle: Klucel (hydroxypropylcellulose) (HPC).
[8] abbreviates: dose: 200.0 mg/kg/injection, schedule: Q01DX005 (ip), vehicle: Klucel (hydroxypropylcellulose) (HPC).
Setting [9] is: dose: 50.0 mg/kg/injection, schedule: Q01DX009 (ip), vehicle: saline.
Where [10] appears, read: dose: 100.0 mg/kg/injection, schedule: Q01DX009 (ip), vehicle: saline.
Setting [11] is: dose: 200.0 mg/kg/injection, schedule: Q01DX009 (ip), vehicle: saline.

Values joined by “and” are separate entries in the source; they are usually repeats but may differ in a detail not shown here. Equal values may be shown once. Inconclusive results and toxic doses are left out.

In the case of `N#CCCCCCCCCCCCC1C=CCC1` (stereo unspecified), the T/C is, setting by setting: (dose: 100.0 mg/kg/injection, schedule: Q01DX001 (ip), vehicle: saline) 100 % of control; (dose: 200.0 mg/kg/injection, schedule: Q01DX001 (ip), vehicle: saline) 98 % of control; (dose: 400.0 mg/kg/injection, schedule: Q01DX001 (ip), vehicle: saline) 100 % of control.

Turning to `COc1cccc2c1C(=O)c1c(O)c3c(c(O)c1C2=O)C[C@@](O)(C(O)CO)C[C@@H]3OC1CC(N(Cc2ccccc2)Cc2ccccc2)C(O)C(C)O1` (stereo partly specified), the T/C is 100 % of control (dose: 6.25 mg/kg/injection, schedule: Q04DX003 (ip), vehicle: water); 109 % of control (dose: 12.5 mg/kg/injection, schedule: Q04DX003 (ip), vehicle: water); 100 % of control (dose: 25.0 mg/kg/injection, schedule: Q04DX003 (ip), vehicle: water); 170 % of control (dose: 50.0 mg/kg/injection, schedule: Q04DX003 (ip), vehicle: water); 209 % of control and 212 % of control (dose: 100.0 mg/kg/injection, schedule: Q04DX003 (ip), vehicle: water).

Take `O=C(C=C(C(F)(F)Cl)C(F)(F)Cl)c1cccs1`: the T/C (dose: 2.5 mg/kg/injection, schedule: Q04DX003 (ip), vehicle: saline) is 95 % of control; the T/C (dose: 5.0 mg/kg/injection, schedule: Q04DX003 (ip), vehicle: saline) was 100 % of control; the T/C (dose: 10.0 mg/kg/injection, schedule: Q04DX003 (ip), vehicle: saline) is 100 % of control.

Regarding `CC(=O)C1=C(C)NC(C)=C(C(C)=O)C1c1ccccc1`, the T/C is, setting by setting: (dose: 100.0 mg/kg/injection, schedule: Q01DX009 (ip), vehicle: saline with Tween-80) 100 % of control; (dose: 200.0 mg/kg/injection, schedule: Q01DX009 (ip), vehicle: saline with Tween-80) 100 % of control; (dose: 400.0 mg/kg/injection, schedule: Q01DX009 (ip), vehicle: saline with Tween-80) 90 % of control.

Turning to `Cc1ccc2c(N(CCCl)CCCl)cc(-c3ccccc3)nc2n1`, the T/C was 98 % of control (dose: 50.0 mg/kg/injection, schedule: Q04DX003 (ip), vehicle: Klucel (hydroxypropylcellulose) (HPC)); 100 % of control (dose: 100.0 mg/kg/injection, schedule: Q04DX003 (ip), vehicle: Klucel (hydroxypropylcellulose) (HPC)); 99 % of control (dose: 200.0 mg/kg/injection, schedule: Q04DX003 (ip), vehicle: Klucel (hydroxypropylcellulose) (HPC)).

Turning to `CN(C)C1C(=O)C(C(=O)NCNCCC(=O)O)=C(O)C2(O)C(=O)C3=C(O)c4c(O)cccc4C(C)(O)C3CC12` (stereo unspecified), the T/C (dose: 50.0 mg/kg/injection, schedule: Q01DX005 (ip), vehicle: saline) was 101 % of control; the T/C (dose: 100.0 mg/kg/injection, schedule: Q01DX005 (ip), vehicle: saline) is 94 % of control; the T/C (dose: 200.0 mg/kg/injection, schedule: Q01DX005 (ip), vehicle: saline) is 101 % of control.

As for `COc1cc2c(cc1C(C)c1ccc(Cl)cc1)OCO2` (stereo unspecified), the T/C is, setting by setting: under setting [1], 99 % of control; under setting [2], 108 % of control; under setting [3], 101 % of control.

Take `O=C(Cc1nc2ccccc2[nH]c1=O)c1cccnc1`: the T/C under setting [4] was 99 % of control; the T/C under setting [5] is 94 % of control; the T/C (dose: 240.0 mg/kg/injection, schedule: Q01DX005 (ip), vehicle: saline with Tween-80) is 98 % of control.

With `Nc1[nH]c(=S)nc2nc[nH]c12`, the T/C is 103 % of control (dose: 6.25 mg/kg/injection, schedule: Q01DX005 (ip), vehicle: saline with Tween-80) and 100 % of control (dose: 12.5 mg/kg/injection, schedule: Q01DX005 (ip), vehicle: saline with Tween-80).

For `CCn1cnc2c(SC3CCCC3)ncnc21`, the T/C was 105 % of control (dose: 100.0 mg/kg/injection, schedule: Q01DX009 (ip), vehicle: saline sonified) and 110 % of control (dose: 200.0 mg/kg/injection, schedule: Q01DX009 (ip), vehicle: saline sonified).

As for `O=C(NC(=O)C1CCC(=O)N1Cc1ccccc1)NC1CCC(=O)N1Cc1ccccc1` (stereo unspecified), the T/C reads like this: under setting [4], 96 % of control; under setting [5], 94 % of control.

As for `N#CCCN(N)S(=O)(=O)c1ccc(Br)cc1`, the T/C by setting is: under setting [6], 102 % of control; under setting [7], 96 % of control; under setting [8], 115 % of control.

Take `COc1cc([N+](=O)[O-])c(S(=O)(=O)O)cc1N=N/C(=N/Nc1cc(S(=O)(=O)O)c([N+](=O)[O-])cc1OC)C(=O)Nc1ccccc1`: the T/C is 95 % of control under setting [6] and 93 % of control under setting [7].

Turning to `CC(=O)NCCn1ccnc1`, the T/C reads like this: under setting [9], 95 % of control; under setting [10], 102 % of control; under setting [11], 102 % of control.

Take `CSC(=CC(=O)c1ccco1)SC`: the T/C under setting [4] is 98 % of control and the T/C under setting [5] is 96 % of control.

Take `Cc1noc(N)c1Sc1ccc(Br)cc1`: the T/C reads like this: under setting [1], 91 % of control; under setting [2], 100 % of control; under setting [3], 108 % of control.

For the compound `CCCCOP(=O)(N1CC1(C)C)N1CC1(C)C` (stereo unspecified), the T/C by setting is: (dose: 2.0 mg/kg/injection, schedule: Q01DX009 (ip), vehicle: saline) 104 % of control and 115 % of control and 96 % of control; (dose: 4.0 mg/kg/injection, schedule: Q01DX009 (ip), vehicle: saline) 115 % of control and 117 % of control and 98 % of control; (dose: 8.0 mg/kg/injection, schedule: Q01DX009 (ip), vehicle: saline) 108 % of control and 111 % of control; (dose: 10.0 mg/kg/injection, schedule: Q01DX001 (ip), vehicle: saline) 105 % of control and 111 % of control and 115 % of control; (dose: 20.0 mg/kg/injection, schedule: Q01DX001 (ip), vehicle: saline) 101 % of control and 102 % of control; (dose: 40.0 mg/kg/injection, schedule: Q01DX001 (ip), vehicle: saline) 105 % of control and 117 % of control.

On to `O=C(O)c1ccc2nc(-c3ccccc3)cn2c1`, for which the T/C reads like this: (dose: 12.5 mg/kg/injection, schedule: Q04DX003 (ip), vehicle: saline with Tween-80) 98 % of control; (dose: 25.0 mg/kg/injection, schedule: Q04DX003 (ip), vehicle: saline with Tween-80) 98 % of control; (dose: 50.0 mg/kg/injection, schedule: Q04DX003 (ip), vehicle: saline with Tween-80) 101 % of control and 105 % of control; (dose: 100.0 mg/kg/injection, schedule: Q04DX003 (ip), vehicle: saline with Tween-80) 106 % of control.

`O=C1C=C(NCCC2CCCN3CCCCC23)C(=O)c2ccccc21` (stereo unspecified): the T/C is 98 % of control (dose: 12.5 mg/kg/injection, schedule: Q01DX001 (ip), vehicle: Klucel (hydroxypropylcellulose) (HPC)); 95 % of control (dose: 25.0 mg/kg/injection, schedule: Q01DX001 (ip), vehicle: Klucel (hydroxypropylcellulose) (HPC)); 100 % of control (dose: 50.0 mg/kg/injection, schedule: Q01DX001 (ip), vehicle: Klucel (hydroxypropylcellulose) (HPC)).

Take `O=C1CSC(=S)N1c1ccc(F)c(F)c1`: the T/C by setting is: under setting [9], 107 % of control; under setting [10], 106 % of control; under setting [11], 108 % of control.

As to `C[C@@]1(N=Cc2ccccc2)C(=O)NC(=O)C2=CN(Cc3ccccc3)C=C[C@@H]21`, the T/C was 102 % of control under setting [6], 99 % of control under setting [7] and 89 % of control under setting [8].

As to `O=Cc1cccc(S(=O)(=O)O)c1`, the T/C (dose: 60.0 mg/kg/injection, schedule: Q01DX005 (ip), vehicle: saline) is 100 % of control; the T/C (dose: 120.0 mg/kg/injection, schedule: Q01DX005 (ip), vehicle: saline) was 94 % of control; the T/C (dose: 240.0 mg/kg/injection, schedule: Q01DX005 (ip), vehicle: saline) was 102 % of control.

As for `[Cl][Pt+2][Cl].[NH-]C1CCCC1[NH-]` (stereo unspecified), the T/C is, setting by setting: (dose: 3.13 mg/kg/injection, schedule: Q04DX002 (ip), vehicle: saline with Tween-80) 158 % of control; (dose: 6.25 mg/kg/injection, schedule: Q04DX002 (ip), vehicle: saline with Tween-80) 198 % of control and 190 % of control and 171 % of control; (dose: 12.5 mg/kg/injection, schedule: Q04DX002 (ip), vehicle: saline with Tween-80) 210 % of control and 197 % of control and 222 % of control; (dose: 25.0 mg/kg/injection, schedule: Q04DX002 (ip), vehicle: saline with Tween-80) 235 % of control and 112 % of control.

With `CC(=O)c1c(C)[nH]c(-c2ccccc2)c1NS(=O)(=O)c1ccc(N)cc1`, the T/C under setting [4] is 98 % of control and the T/C under setting [5] was 91 % of control.

`CCCC(Nc1ncccn1)Nc1ncccn1`: the T/C under setting [6] is 100 % of control, the T/C under setting [7] was 100 % of control and the T/C under setting [8] was 99 % of control.

The values are drawn from PubChem BioAssay AID330 (DTP/NCI, 2004).
